From patent US10882845B2, “Crystal form of deuterated AZD9291, preparation method therefor, and use thereof” (TYK MEDICINES INC., priority 2017, dated 2021)
Structures can show the parent of a compound that is named as a salt.

Tests used:
[1] = Passage through the blood-brain barrier into the brain; format: in vivo; conditions: in the body
Text: At present, some deuterated AZD9291 compounds have been reported in CN104140418B and CN105237515A, but no crystal forms of the pharmaceutically acceptable salt of deuterated AZD9291 have been reported. A crystal form is a solid state of a drug. The study of the drug crystal form is the study of the basic state of the drug. It is impossible to find a crystal form of a drug (solid material) that is more suitable for treating the disease, unless having a full and comprehensive understanding of the crystal form of the chemical drug. The crystal form of a drug can affect physical and chemical properties of the drug, and directly affect the clinical basis of the drug to play a role in the treatment of disease. At the same time, due to the solubility of some drugs, such drugs shall be made into a pharmaceutically acceptable salt, which can greatly improve its solubility and improve the absorption and utilization of drugs. The applicant has been engaged in the research of drugs for lung cancer, started drug research on EGFR targets very early, and has obtained a series of research results6, such as patent applications CN102659692, U.S. Ser. No. 08/916,572, CN107382879, WO2017219500 and WO2018050052. […] Therefore, it has no effect on tumors metastasized to the brain. […]

[2] = Accelerated stability test (drug accelerated stability test chamber, 40° C., relative humidity 75%); format: physicochemical; conditions: 75% RH
[3] = as above; format: physicochemical; conditions: 75% RH; remark: listed apart in the source
Description: The stability of the crystal form of the compound represented by the formula (I) or the formula (II) was further measured, and the apparatus used was a drug accelerated stability test chamber; the accelerated test condition was 40° C., and the relative humidity was 75%. After an accelerated test for six months in the drug accelerated stability test chamber was completed, a sample of the crystal form of the compound of the formula (I) or the formula (II) was obtained and subjected to X-ray powder diffraction analysis, and the obtained X-ray powder diffraction pattern was as shown in FIG. 2.

[4] = Stability at room temperature; format: physicochemical; conditions: for Purity (HPLC) / character (visual inspection) / hygroscopicity (visual inspection): room temperature
Text: The crystal form of the compound of the formula (I) or the formula (II) obtained by the method 1 or the method 2 of the present invention is not changed in moisture absorption or the like after being left at room temperature for 1 month. […] Its purity was as high as 99.83%, and the content of each single impurity was below 0.1%, which was suitable for the subsequent development of active pharmaceutical ingredient and preparations as well as subsequent pharmacokinetic experiments and zoological experiments.
The crystal form of deuterated AZD9291 mesylate prepared in the present invention was placed in a laboratory at room temperature, and the stability at room temperature was examined.

in vivo = conditions: rat, po
Text: Moreover, a single impurity is below 0.1%, which is in line with requirements for the development of API and CMC.
The high bioavailability of oral administration proves that this crystal form is suitable for the development of oral preparations.

## C=CC(=O)Nc1cc(Nc2nccc(-c3c[nH]c4ccccc34)n2)c(OC)cc1N(C)CCN(C)C [AZ5104]
[1]
  passage through the blood-brain barrier: cannot pass through the blood-brain barrier

## C=CC(=O)Nc1cc(Nc2nccc(-c3cn(C)c4ccccc34)n2)c(OC)cc1N(C)CCN(C)C [compound of formula III]
[1]
  passage through the blood-brain barrier: can enter the brain through the blood-brain barrier

## [2H]C([2H])([2H])n1cc(-c2ccnc(Nc3cc(NC(=O)C=C)c(N(C)CCN(C)C)cc3OC)n2)c2ccccc21 [deuterated AZD9291 mesylate crystal form]
[2]; month 0
  character (visual inspection): off-white
  compound purity (HPLC): 99%,
  deuteration rate (HNMR): rate 99%
[2]; month 1
  character (visual inspection): off-white,
  compound purity (HPLC): 99%,
  deuteration rate (HNMR): rate 99%
  hygroscopicity (visual inspection): no
[2]; month 2
  character (visual inspection): off white,
  compound purity (HPLC): 99%,
  deuteration rate (HNMR): rate 99%
  hygroscopicity (visual inspection): no
[2]; month 3
  character (visual inspection): off white,
  compound purity (HPLC): 99%,
  deuteration rate (HNMR): rate 99%
  hygroscopicity (visual inspection): no
[2]; month 4
  character (visual inspection): off white,
  compound purity (HPLC): 99%,
  deuteration rate (HNMR): rate 99%
  hygroscopicity (visual inspection): no
[2]; month 6
  character (visual inspection): off white,
  compound purity (HPLC): 99%,
  deuteration rate (HNMR): rate 99%
  hygroscopicity (visual inspection): no
[3]; month 6, listed as crystal form of the compound represented by the formula (I) or the formula (II)
  crystal form (X-ray powder diffraction): no crystal
[3]; month 6, listed as crystal form of the present invention
  crystal form (X-ray powder diffraction): maintained
[4]; left at room temperature for 1 month
  change in moisture absorption or the like: not changed
[4]; day 0
  Purity (HPLC): 99.73%
  character (visual inspection): off-white powder
[4]; day 15
  Purity (HPLC): 99.70%
  character (visual inspection): off-white powder
  hygroscopicity (visual inspection): (no hygroscopicity)
[4]; day 30
  Purity (HPLC): 99.74%
  character (visual inspection): off-white powder
  hygroscopicity (visual inspection): (no hygroscopicity)
In vivo
  AUC: 1.27 µg·h/mL
  bioavailability: 30.9%
  highest blood concentration: 117 ng/mL
